Several values for one entry are separate records, joined by “and”; a condition that tells them apart may be missing. Equal values may be shown once.
How the values were obtained:
Type in all cases: cell-based, human
A2780-ADR cells = assay: MTT viability assay, reversal of MDR in P-gp overexpressing A2780-ADR cells; settings: A2780-ADR cells; for Mean % Survival: mean of 12 samples; for % Survival (individual sample): single samples (trials 1-3, samples 1-4)
Description: (§1) The chemotherapeutic sensitive DU145 human prostate cancer cells and the multidrug resistant sub-line, DU145-TXR, were generous gifts from Dr. Evan Keller (University of Michigan, Ann Arbor, MI). The MDR, P-gp overexpressing DU145-TXR cells were maintained under positive selection pressure by supplementing complete medium with 10 nM paclitaxel (Acros Organics, NJ). In addition to the aforementioned cell lines, the chemotherapeutic sensitive A2780 ovarian cancer cells (93112519, Sigma) and the multidrug resistant A2780-ADR (93112520, Sigma) were maintained in complete RPMI media consisting of RPMI-1640 with L-glutamine, 10% fetal bovine serum (FBS; Corning), 100 U/mL penicillin and 100 μg/mL streptomycin in a humidified incubator at 37 °C and 5% CO2. The MDR, P-gp overexpressing A2780-ADR cell line was maintained under positive selection pressure by supplementing complete medium with 100 nM doxorubicin (Fisher Scientific, NJ). The non-cancerous HFL1 (human lung fibroblast) cell line cell line was a generous gift from Dr. Robert Harrod (Southern Methodist University, Dallas, TX) and was maintained in complete F12K media consisting of F12K with 10% fetal bovine serum, 100 U/mL penicillin, and 100 µg/mL streptomycin (Gibco). Flasks and 96 well plates that were used with the non-cancerous line HFL1 were pre-treated with 0.1 mg/ml Collagen Type 1 (Gibco) and rinsed with PBS (Fisher).
(§2) Culture of the DU145, DU145-TXR, and HFL1 cell lines was performed as described in [8]. Culture of the A2780 and A2780-ADR cell lines was performed as described in [9]. MTT assays were performed as described in [8] with minor modifications. LC-MS/MS accumulation assays were performed as described in {Nanayakkara, 2018 #173} [9] with some modifications. […] The inhibitor concentration was lowered to 15 µM here, as the goal of the study was to identify compounds that were effective in reversing MDR at low concentrations, and to determine if the expanded virtual-assisted methods improved on our first-draft attempt. Compounds 56–98 were pre-screened using Resazurin cell viability assays: cells were incubated with 15 µM compound with or without 500 nM PTX for 48 hours, after which cell survival was assessed similar to [39]. Data represent the mean of two separate experiments, with n = 3 samples per experiment (n = 6 total) (S4 Table). The top performing compounds from this initial screen were re-tested with MTT viability assays against DU145-TXR cells, as described below.
(§3) MTT assays measure the reduction of yellow, water soluble 3-(4,5-dimethylthiazol-2-yl)-2,5-diphenyltetrazolium bromide (MTT) to blue, insoluble formazan crystals by cellular reductase processes in living cells. Cells were trypsinized from monolayers and seeded in complete medium in 96 well plates. Cancerous cell lines (DU145, DU145-TXR, A2780, A2780-ADR) were seeded at 3,000 cells per well in complete RPMI medium. The non-cancerous HFL1 line was seeded at 4,000 cells per well in complete F12K medium, in collagen-treated plates (Collagen Type 1, Gibco). Cells were incubated with experimental compounds for 48 hours at 37 °C and 5% CO2 in a humidified incubator. At 48 hours, MTT was added (20 µL/well of 5 mg/mL MTT in PBS) to each well. After incubation for 4 hours, the media was removed, and the formazan crystals were dissolved in 100 µL DMSO per well. Plates containing the semi-adherent A2780 or A2780-ADR lines were spun at 1400 rpm for 3 minutes prior to aspiration of media, and the addition of DMSO. Plates were shaken for 10 minutes at 500 rpm on an Orbital shaker (LabDoctor from MidSci, St Louis, MO). The absorbance was measured at 570 nm using a Bio-Tek Cytation 5 (Bio-Tek, Winooski, VT). The measured absorbance value was correlated with the number of metabolically active cells in that well, corrected for absorbance of media. […]

A2780 cells = assay: MTT viability assay, parental A2780 cells, with or without PTX; settings: A2780 cells; for Mean % Survival: mean of 8 or 12 samples; for % Survival (individual sample): single samples
Description: as §1, §2, §3

DU145-TXR cells = assay: MTT viability assay, reversal of MDR (re-sensitization to paclitaxel) in P-gp overexpressing DU145-TXR cells; settings: DU145-TXR; for % Survival, mean: mean of 8 samples
Description: as §1, §2, §3

DU145 cells = assay: MTT viability assay, non-P-gp overexpressing DU145 parental line, with or without PTX; settings: DU145 cells, 48 h
Description: as §1, with “In addition to the aforementioned cell lines, the chemotherapeutic sensitive A2780 ovarian cancer cells (93112519, Sigma) and the multidrug resistant A2780-ADR (93112520, Sigma) were maintained in complete RPMI media consisting of RPMI-1640 with L-glutamine, 10% fetal bovine serum (FBS; Corning), 100 U/mL penicillin and 100 μg/mL streptomycin in a humidified incubator at 37 °C and 5% CO2.” left out
Culture of the DU145, DU145-TXR, and HFL1 cell lines was performed as described in [8]. Culture of the A2780 and A2780-ADR cell lines was performed as described in [9]. MTT assays were performed as described in [8] with minor modifications. […] Data represent the mean of two separate experiments, with n = 3 samples per experiment (n = 6 total) (S4 Table).
MTT assays measure the reduction of yellow, water soluble 3-(4,5-dimethylthiazol-2-yl)-2,5-diphenyltetrazolium bromide (MTT) to blue, insoluble formazan crystals by cellular reductase processes in living cells. Cells were trypsinized from monolayers and seeded in complete medium in 96 well plates. Cancerous cell lines (DU145, DU145-TXR, A2780, A2780-ADR) were seeded at 3,000 cells per well in complete RPMI medium. The non-cancerous HFL1 line was seeded at 4,000 cells per well in complete F12K medium, in collagen-treated plates (Collagen Type 1, Gibco). Cells were incubated with experimental compounds for 48 hours at 37 °C and 5% CO2 in a humidified incubator. At 48 hours, MTT was added (20 µL/well of 5 mg/mL MTT in PBS) to each well. After incubation for 4 hours, the media was removed, and the formazan crystals were dissolved in 100 µL DMSO per well. Plates containing the semi-adherent A2780 or A2780-ADR lines were spun at 1400 rpm for 3 minutes prior to aspiration of media, and the addition of DMSO. Plates were shaken for 10 minutes at 500 rpm on an Orbital shaker (LabDoctor from MidSci, St Louis, MO). The absorbance was measured at 570 nm using a Bio-Tek Cytation 5 (Bio-Tek, Winooski, VT). The measured absorbance value was correlated with the number of metabolically active cells in that well, corrected for absorbance of media. The percent of cell viability (termed ‘survival’ here) was calculated as a percentage of survival of the control condition, which refers to vehicle-treated (DMSO as vehicle) cells, or vehicle-and-chemotherapeutic-treated cells, if testing a compound’s ability to re-sensitize cells to a chemotherapeutic. Percent survival was calculated using the following equation:
% Survival=100 × absorbance of experimental cells/mean absorbance of control treated cells
For DU145-TXR, DU145, HFL1 and A2780 cells – data are the mean ± one standard deviation, 8 samples per compound, from at least two independent trials per compound. […] For A2780-ADR cells, data are the mean ± one standard deviation with 12 samples per compound, from at least two independent trials per compound.
67 compounds were chosen from computational screens for testing in vitro. A) DU145-TXR cells were exposed to 15 µM experimental compound with or without 500 nM of the P-gp substrate and chemotherapeutic paclitaxel (PTX).

[1] = single samples, 2 trials x 4 samples, listed as VPL

SMILES: COc1ccc(CCN(C)CCCC(C#N)(c2ccc(OC)c(OC)c2)C(C)C)cc1OC (stereo not drawn) [VER]
- Mean % Survival (A2780-ADR cells; 15 µM compound + 500 nM PTX): 52.3%
- % Survival (individual sample) (A2780-ADR cells; 15 µM compound + 500 nM PTX): 58% and 57% and 53% and 42% and 41% and 51% and 47%
- Mean % Survival (A2780-ADR cells; 15 µM compound alone): 84.8%
- % Survival (individual sample) (A2780-ADR cells; 15 µM compound alone): 80% and 82% and 85% and 92% and 94% and 95% and 89% and 81% and 77% and 66%
- Mean % Survival (A2780 cells; 15 µM compound + 500 nM PTX): 14.9%
- % Survival (individual sample) (A2780 cells; 15 µM compound + 500 nM PTX): 17% and 18% and 12% and 50% and 11% and 10% and 9%
- Mean % Survival (A2780 cells; 15 µM compound alone): 75.9%
- % Survival (individual sample) (A2780 cells; 15 µM compound alone): 74% and 75% and 86% and 67% and 64% and 83% and 79%
- % Survival, mean (DU145-TXR cells; 15 µM Compound Alone): 86.2%
- % Survival (DU145-TXR cells; 15 µM Compound Alone, trial 1, sample 1): 98%
- % Survival (DU145-TXR cells; 15 µM Compound Alone, trial 1, sample 2): 95%
- % Survival (DU145-TXR cells; 15 µM Compound Alone, trial 1, sample 3): 96%
- % Survival (DU145-TXR cells; 15 µM Compound Alone, trial 1, sample 4): 90%
- % Survival (DU145-TXR cells; 15 µM Compound Alone, trial 2, sample 1): 79%
- % Survival (DU145-TXR cells; 15 µM Compound Alone, trial 2, sample 2): 74%
- % Survival (DU145-TXR cells; 15 µM Compound Alone, trial 2, sample 3): 72%
- % Survival (DU145-TXR cells; 15 µM Compound Alone, trial 2, sample 4): 85%
- % Survival, mean (DU145-TXR cells; 15 µM compound + 500 nM PTX (Paclitaxel, Taxol)): 21.9%
- % Survival (DU145-TXR cells; 15 µM compound + 500 nM PTX (Paclitaxel, Taxol), trial 1, sample 1): 19%
- % Survival (DU145-TXR cells; 15 µM compound + 500 nM PTX (Paclitaxel, Taxol), trial 1, sample 2): 23%
- % Survival (DU145-TXR cells; 15 µM compound + 500 nM PTX (Paclitaxel, Taxol), trial 1, sample 3): 29%
- % Survival (DU145-TXR cells; 15 µM compound + 500 nM PTX (Paclitaxel, Taxol), trial 1, sample 4): 18%
- % Survival (DU145-TXR cells; 15 µM compound + 500 nM PTX (Paclitaxel, Taxol), trial 2, sample 1): 23%
- % Survival (DU145-TXR cells; 15 µM compound + 500 nM PTX (Paclitaxel, Taxol), trial 2, sample 2): 20%
- % Survival (DU145-TXR cells; 15 µM compound + 500 nM PTX (Paclitaxel, Taxol), trial 2, sample 3): 23%
- % Survival (DU145-TXR cells; 15 µM compound + 500 nM PTX (Paclitaxel, Taxol), trial 2, sample 4): 21%

SMILES: COc1ccc(CCN(C)CCCC(C#N)(c2ccc(OC)c(OC)c2)C(C)C)cc1OC (stereo not drawn) [Verapamil, reference compound]
- % Survival, Mean, 15 µM compound + 500 nM PTX (DU145 cells; mean of 8 samples): 8.6%
- % Survival, 15 µM Compound alone (individual samples) (DU145 cells; [1]): 53%
- % Survival, 15 µM compound + 500 nM PTX (individual samples) (DU145 cells; [1]): 7%
- viability at 15 µM (DU145 cells; Homo sapiens, DU-145, 48 h, mean of 8 samples, read-out: % Survival, Mean, 15 µM Compound alone): 45.5%

From paper PMC12349723, “Computationally accelerated identification of P-glycoprotein inhibitors” (PLOS One, 2025)
